Several values for one entry are separate records, joined by “and”; a condition that tells them apart may be missing. Identical values can stand only once.
Key:
[1] = molecular target: T1, mGluR2 (Mus musculus, UniProt Q14BI2, A548F); experiment: Live-cell FRET, azi-CRD (cysteine-rich domain) sensor in HEK293T cells; conditions: for Mean normalized FRET response, azi-CRD PAM DRC: glutamate + 10μM BINA, maximal response normalized to 1mM glutamate
[2] = molecular target: T2, mGluR2 (Mus musculus, UniProt Q14BI2); experiment: Live-cell FRET, SNAP-m2 (VFT domain) inter-subunit sensor in HEK293T cells; conditions: for SNAP-m2 FRET response (PAM DRC): individual cells, normalized to 1mM glutamate;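 for all read-outs here: apparent FRET efficiency from whole-membrane ROIs of single cells, corrected for donor bleed-through and background, ΔFRET as treatment minus pretreatment signal, recorded at room temperature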
T2 sequence (Q14BI2 19-872): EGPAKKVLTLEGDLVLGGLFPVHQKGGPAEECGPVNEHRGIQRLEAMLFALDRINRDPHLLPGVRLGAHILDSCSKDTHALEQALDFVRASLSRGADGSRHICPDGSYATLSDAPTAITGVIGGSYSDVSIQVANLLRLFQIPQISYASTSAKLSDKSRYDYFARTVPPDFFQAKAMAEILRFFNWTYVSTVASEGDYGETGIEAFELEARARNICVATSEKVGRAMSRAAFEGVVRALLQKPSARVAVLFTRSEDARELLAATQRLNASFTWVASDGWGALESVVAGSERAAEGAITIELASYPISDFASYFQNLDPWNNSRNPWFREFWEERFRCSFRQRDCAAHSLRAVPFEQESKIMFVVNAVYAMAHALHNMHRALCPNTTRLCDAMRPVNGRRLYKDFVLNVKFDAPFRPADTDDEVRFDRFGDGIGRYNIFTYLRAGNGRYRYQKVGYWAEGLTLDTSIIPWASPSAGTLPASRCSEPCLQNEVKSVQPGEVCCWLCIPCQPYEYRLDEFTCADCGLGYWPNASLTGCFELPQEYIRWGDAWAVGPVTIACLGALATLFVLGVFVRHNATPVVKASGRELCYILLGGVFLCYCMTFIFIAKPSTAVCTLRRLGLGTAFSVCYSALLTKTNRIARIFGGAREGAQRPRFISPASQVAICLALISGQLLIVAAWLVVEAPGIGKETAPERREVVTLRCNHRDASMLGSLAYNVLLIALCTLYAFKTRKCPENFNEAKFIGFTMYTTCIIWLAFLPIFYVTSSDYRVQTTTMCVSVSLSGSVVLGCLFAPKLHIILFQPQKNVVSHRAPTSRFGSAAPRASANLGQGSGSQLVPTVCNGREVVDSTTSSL

[3] = molecular target: mGluR2 (Mus musculus, UniProt Q14BI2, INS715F); experiment: Live-cell FRET, azi-ECL2 (7TM domain, extracellular loop 2) sensor in HEK293T cells; conditions: for Mean normalized azi-ECL2 FRET response: glutamate + 10μM modulator, maximal response normalized to 1mM glutamate;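 for all read-outs here: Cy3/Cy5 click-labeled sensor, whole-membrane ROIs per cell, apparent FRET after bleed-through correction, ΔFRET as treatment minus pre-treatment signal, at room temperature, at least three biological replicates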
Sequence of mGluR2 (Mus musculus, UniProt Q14BI2, INS715F) (Q14BI2 with tags, fused parts or gaps INS715F): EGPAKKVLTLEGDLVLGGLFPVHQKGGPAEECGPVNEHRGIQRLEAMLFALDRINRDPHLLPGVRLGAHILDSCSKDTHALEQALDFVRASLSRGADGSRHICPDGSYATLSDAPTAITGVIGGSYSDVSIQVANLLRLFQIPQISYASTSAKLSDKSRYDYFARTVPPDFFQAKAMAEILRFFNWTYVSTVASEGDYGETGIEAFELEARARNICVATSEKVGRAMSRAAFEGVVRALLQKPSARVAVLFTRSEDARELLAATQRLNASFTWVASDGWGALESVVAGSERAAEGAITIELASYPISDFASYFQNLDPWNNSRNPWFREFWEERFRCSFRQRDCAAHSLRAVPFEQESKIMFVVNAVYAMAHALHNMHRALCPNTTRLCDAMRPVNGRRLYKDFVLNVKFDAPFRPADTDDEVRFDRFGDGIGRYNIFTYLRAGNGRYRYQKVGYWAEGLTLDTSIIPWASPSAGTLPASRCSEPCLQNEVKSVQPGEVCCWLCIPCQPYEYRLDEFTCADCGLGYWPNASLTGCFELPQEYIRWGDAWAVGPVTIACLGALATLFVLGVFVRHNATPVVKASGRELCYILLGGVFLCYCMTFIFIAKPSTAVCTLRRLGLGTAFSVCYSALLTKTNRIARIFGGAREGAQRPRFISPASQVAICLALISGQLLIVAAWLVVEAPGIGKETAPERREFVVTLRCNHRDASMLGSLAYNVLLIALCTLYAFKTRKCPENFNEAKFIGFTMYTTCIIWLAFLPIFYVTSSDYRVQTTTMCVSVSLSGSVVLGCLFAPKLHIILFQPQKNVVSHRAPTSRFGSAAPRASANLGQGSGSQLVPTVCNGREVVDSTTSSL

[4] = molecular target: T1, mGluR2; experiment: Single-molecule FRET (SiMPull) of azi-CRD: population histograms and state occupancy; conditions: azi-CRD, 10 μM modulator, fraction of total area;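 note: Cy3/Cy5-labelled receptor from HEK293T cell lysate captured on anti-FLAG surfaces, apparent FRET efficiency computed from donor and acceptor intensities with crosstalk correction, pooled into population histograms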
[5] = molecular target: T2, mGluR2; experiment: Functional calcium imaging, SNAP-mGluR2 (no FLAG-tag) with chimeric G protein Gqo5 in HEK293T cells; type: cell-based; set-up: Full length mGluR2 construct with an amber codon (TAG) mutation of amino acid A548 (azi-CRD) or N-terminal SNAP-tag (SNAP-mGluR2); host or cells: HEK293T; conditions: for Intracellular Ca2+ Response (normalized to 1mM glutamate), Mean: Glutamate + 1μM BINA
[6] = 10μM BINA, ([1 mM glutamate + modulator] - [1 mM glutamate]) × 100
[7] = Glutamate + 10μM BINA, log[Glutamate] (M) -5.82391
[8] = Glutamate + 10μM BINA, log[Glutamate] (M) -6.52288
[9] = Glutamate + 10μM BINA, log[Glutamate] (M) -7
[10] = Glutamate + 10μM BINA, log[Glutamate] (M) -7.30103
[11] = Glutamate + 10μM BINA, log[Glutamate] (M) -7.69897

T1 sequence (Q14BI2 19-872 A548F): as the sequence (Q14BI2 19-872) above, with A530F counted along it

For Cc1c(OCc2cccc(-c3ccc(C(=O)O)cc3)c2)cc2c(c1C)C(=O)C(C1CCCC1)C2 (centres unmarked) [BINA], the “azi-CRD - ΔEfficacy, Mean ΔEfficacy” value [1, 6] was 12.0943, the “azi-CRD - ΔEfficacy, individual cell responses” value ([1]; 10μM BINA, single cells) was 23.3716 and 17.6357 and 26.8405 and 19.7115 and 27.7937 and 0.5839 and -1.206 and 0.442 and -6.324 and the “Hill slope of glutamate titration” value ([1]; azi-CRD sensor, + 10 μM modulator) was 1.16. The “Live-cell FRET max response normalized to 1mM glutamate” value ([1]; azi-CRD sensor, Glutamate + 10μM BINA, individual values (N=9)) was 1.278 and 1.006 and 0.9879 and 1.004 and 0.9368 and 1.234 and 1.176 and 1.2684 and 1.197, the “Mean max response (normalized max ΔFRET)” value ([1]; azi-CRD, 1 mM glutamate + 10 μM modulator, normalized to 1 mM glutamate) was 1.12 and the “Mean ΔPotency” value ([1]; azi-CRD, 10μM modulator, (([modulator + glutamate]EC50 – [glutamate] EC50)/[glutamate] EC50) × 100) was -86.2846. The “ΔPotency, individual cell” value ([1]; azi-CRD, 10μM modulator, calculated from individual cell responses) was -93.2892 and -92.5628 and -93.8686 and -95.6587 and -92.9779 and -84.725 and -80.1033 and -74.2586 and -75.6122 and -79.7897, the “Mean normalized FRET response, azi-CRD PAM DRC” value (from here on “Mean normalized FRET response”) ([1]; log[Glutamate] (M) -3) was 1.121 and the “Mean normalized FRET response” value ([1]; log[Glutamate] (M) -4.1549) was 1.112. For the same compound, the “Mean normalized FRET response” value ([1]; log[Glutamate] (M) -4.52288) was 1.067, the “Mean normalized FRET response” value ([1]; log[Glutamate] (M) -5) was 1.001 and the “Mean normalized FRET response” value ([1]; log[Glutamate] (M) -5.39794) was 0.8946. The “Mean normalized FRET response” value ([1]; log[Glutamate] (M) -5.82391) was 0.6333, the “Mean normalized FRET response” value ([1]; log[Glutamate] (M) -6.52288) was 0.1759 and the “Mean normalized FRET response” value ([1]; log[Glutamate] (M) -7) was 0.038. The “Mean normalized FRET response” value ([1]; log[Glutamate] (M) -7.30103) was 0, the “Mean normalized FRET response” value ([1]; log[Glutamate] (M) -7.69897) was 0 and the “Mean normalized FRET response” value ([1]; log[Glutamate] (M) -8) was 0. The “SNAP-m2 - ΔEfficacy, Mean ΔEfficacy” value [2, 6] was 2.381, the “SNAP-m2 - ΔEfficacy, individual cell responses” value ([2]; 10μM BINA, single cells) was 2.679 and 0.7326 and 0.3738 and 4.211 and 3.017 and 2.268 and 3.39 and the “SNAP-m2 FRET response (PAM DRC), Mean” value ([2]; Glutamate + 10μM BINA, log[Glutamate] (M) -3) was -1.024. For the same compound, the “SNAP-m2 FRET response (PAM DRC), Mean” value ([2]; Glutamate + 10μM BINA, log[Glutamate] (M) -4.1549) was -1.044, the “SNAP-m2 FRET response (PAM DRC), Mean” value ([2]; Glutamate + 10μM BINA, log[Glutamate] (M) -4.52288) was -1.065 and the “SNAP-m2 FRET response (PAM DRC), Mean” value ([2]; Glutamate + 10μM BINA, log[Glutamate] (M) -5) was -1.035. For the same compound, the “SNAP-m2 FRET response (PAM DRC), Mean” value ([2]; Glutamate + 10μM BINA, log[Glutamate] (M) -5.39794) was -0.9191, the “SNAP-m2 FRET response (PAM DRC)” value [2, 7] was -0.3851 and -0.8695 and -0.7127 and -0.7584 and -0.7474 and -0.9245 and -0.822 and -0.6977 and -0.989 and -0.9518 and -0.9499 and -0.2243 and -0.901 and -0.9622 and -1.01 and -0.9642 and -0.1942 and -0.3249 and -0.4164 and -0.506 and the “SNAP-m2 FRET response (PAM DRC), Mean” value [2, 7] was -0.7275. The “SNAP-m2 FRET response (PAM DRC)” value [2, 8] was -0.06795 and -0.4149 and -0.3185 and -0.3338 and -0.3365 and -0.4306 and -0.3984 and -0.3309 and -0.4302 and -0.4616 and -0.4969 and -0.03041 and -0.4566 and -0.4789 and -0.4597 and -0.5155 and -0.05296 and -0.06597 and -0.09807 and -0.1208 and -0.3936 and -0.2233 and -0.4059, the “SNAP-m2 FRET response (PAM DRC), Mean” value [2, 8] was -0.3184 and the “SNAP-m2 FRET response (PAM DRC)” value [2, 9] was -0.0453 and -0.1707 and -0.1814 and -0.1137 and 0 (10×) and -0.1874 and -0.2505 and -0.1579 and -0.1949 and -0.1703. The “SNAP-m2 FRET response (PAM DRC), Mean” value [2, 9] was -0.07748, the “SNAP-m2 FRET response (PAM DRC)” value [2, 10] was 0 (16×) and -0.1321 and -0.1145 and -0.02457 and the “SNAP-m2 FRET response (PAM DRC), Mean” value [2, 10] was -0.01427. The “SNAP-m2 FRET response (PAM DRC)” value [2, 11] was 0, the “SNAP-m2 FRET response (PAM DRC), Mean” value [2, 11] was 0 and the “Mean max response (normalized max ΔFRET)” value ([2]; SNAP-m2, 1 mM glutamate + 10 μM modulator, normalized to 1 mM glutamate) was 1.02. The “Mean ΔPotency” value ([2]; SNAP-m2, 10μM modulator, (([modulator + glutamate]EC50 – [glutamate] EC50)/[glutamate] EC50) × 100) was -89.602, the “Mean ΔEfficacy” value ([2]; SNAP-m2, 10μM modulator, ([1 mM glutamate + modulator] - [1 mM glutamate]) × 100) was 2.381 and the “Hill slope of glutamate titration” value ([2]; SNAP-m2 sensor, + 10 μM modulator) was “–1.24”. The “Live-cell FRET max response normalized to 1mM glutamate” value ([2]; SNAP-m2 sensor, Glutamate + 10μM BINA, individual values (N=7)) was 1.03 and 1.023 and 1.0339 and 1.027 and 1.007 and 1.004 and 1.042, the “azi-ECL2 - ΔEfficacy, Mean ΔEfficacy” value [3, 6] was 42.1338 and the “Mean ΔPotency” value ([3]; 10μM modulator, (([modulator + glutamate]EC50 – [glutamate] EC50)/[glutamate] EC50) × 100) was -51.0252. For the same compound, the “ΔPotency, individual cell responses” value ([3]; 10μM modulator, single cells, (([modulator + glutamate]EC50 – [glutamate] EC50)/[glutamate] EC50) × 100) was -59.4349 and -64.4751 and -43.9117 and -59.7874 and -53.4508 and -10.4259 and -42.6395 and -39.4154 and -48.6344 and -48.1424 and -33.877 and -32.3399 and -71.1589 and -70.5942 and -70.1728 and -67.9438, the “ΔEfficacy, individual cell responses” value ([3]; 10μM modulator, single cells, ([1 mM glutamate + modulator] - [1 mM glutamate]) × 100) was 29.3333 and 34.3873 and 67.0103 and 45.1311 and 54.8496 and 47.8253 and 100.958 and 52.7779 and 75.0355 and 26.9064 and 8.621 and 25.7313 and 7.026 and 14.2809 and the “Mean max response (normalized max ΔFRET)” value ([3]; azi-ECL2, 1 mM glutamate + 10 μM modulator, normalized to 1 mM glutamate) was 1.42. For the same compound, the “Hill slope of glutamate titration” value ([3]; azi-ECL2 sensor, + 10 μM modulator) was 1.06, the “Mean normalized azi-ECL2 FRET response” value ([3]; log[Glutamate] (M) -3) was 1.421 and the “Mean normalized azi-ECL2 FRET response” value ([3]; log[Glutamate] (M) -4.1549) was 1.469. The “Mean normalized azi-ECL2 FRET response” value ([3]; log[Glutamate] (M) -4.52288) was 1.344, the “Mean normalized azi-ECL2 FRET response” value ([3]; log[Glutamate] (M) -5) was 1.155 and the “Mean normalized azi-ECL2 FRET response” value ([3]; log[Glutamate] (M) -5.39794) was 0.8858. The “Mean normalized azi-ECL2 FRET response” value ([3]; log[Glutamate] (M) -5.82391) was 0.584, the “Mean normalized azi-ECL2 FRET response” value ([3]; log[Glutamate] (M) -6.52288) was 0.1491 and the “Mean normalized azi-ECL2 FRET response” value ([3]; log[Glutamate] (M) -7) was 0.03109. For the same compound, the “Mean normalized azi-ECL2 FRET response” value ([3]; log[Glutamate] (M) -7.30103) was 0.00416, the “Mean normalized azi-ECL2 FRET response” value ([3]; log[Glutamate] (M) -7.69897) was 0 and the “Mean occupancy, state 1 (inactive, FRET 0.24)” value ([4]; 0 μM glutamate) was 0.3053. For the same compound, the “Mean occupancy, state 2 (intermediate 1, FRET 0.38)” value ([4]; 0 μM glutamate) was 0.5199, the “Mean occupancy, state 3 (intermediate 2, FRET 0.70)” value ([4]; 0 μM glutamate) was 0.1483 and the “Mean occupancy, state 4 (active, FRET 0.87)” value ([4]; 0 μM glutamate) was 0.02653. The “Mean occupancy, state 1 (inactive, FRET 0.24)” value ([4]; 1000 μM glutamate) was 0.00296, the “Mean occupancy, state 2 (intermediate 1, FRET 0.38)” value ([4]; 1000 μM glutamate) was 0.03751 and the “Mean occupancy, state 3 (intermediate 2, FRET 0.70)” value ([4]; 1000 μM glutamate) was 0.2179. For the same compound, the “Mean occupancy, state 4 (active, FRET 0.87)” value ([4]; 1000 μM glutamate) was 0.7416, the “Intracellular Ca2+ Response, % 1mM Glutamate” value ([5]; 1mM Glutamate + 1uM BINA, individual experiments) was 150.888% and 116.9% and 139.124% and the “Mean ΔEfficacy of glutamate” value ([5]; Ca2+ response, 1 mM glutamate + 1 μM modulator, ([1 mM glutamate + modulator] - [1 mM glutamate]) × 100) was 35.6375. The “ΔEfficacy of glutamate, individual experiments” value ([5]; Ca2+ response, 1 mM glutamate + 1 μM modulator, single replicate) was 16.9004 and 39.1239 and 50.8883, the “Mean ΔPotency of glutamate” value ([5]; Ca2+ response, glutamate + 1 μM modulator, (([modulator + glutamate]EC50 – [glutamate]EC50)/[glutamate]EC50) × 100) was -89.8956 and the “ΔPotency of glutamate, individual experiments” value ([5]; Ca2+ response, glutamate + 1 μM modulator, single replicate) was -90.1258 and -89.6956 and -89.8653. The “Intracellular Ca2+ Response (normalized to 1mM glutamate), Mean” value ([5]; log[Glutamate] (M) -3) was 1.356, the “Intracellular Ca2+ Response (normalized to 1mM glutamate), Mean” value ([5]; log[Glutamate] (M) -3.60206) was 1.413 and the “Intracellular Ca2+ Response (normalized to 1mM glutamate), Mean” value ([5]; log[Glutamate] (M) -4.1549) was 1.344. The “Intracellular Ca2+ Response (normalized to 1mM glutamate), Mean” value ([5]; log[Glutamate] (M) -4.52288) was 1.309, the “Intracellular Ca2+ Response (normalized to 1mM glutamate), Mean” value ([5]; log[Glutamate] (M) -5) was 1.259 and the “Intracellular Ca2+ Response (normalized to 1mM glutamate), Mean” value ([5]; log[Glutamate] (M) -5.39794) was 1.0353. The “Intracellular Ca2+ Response (normalized to 1mM glutamate), Mean” value ([5]; log[Glutamate] (M) -5.82391) was 0.6392, the “Intracellular Ca2+ Response (normalized to 1mM glutamate), Mean” value ([5]; log[Glutamate] (M) -6.52288) was 0.1098 and the “Intracellular Ca2+ Response (normalized to 1mM glutamate), Mean” value ([5]; log[Glutamate] (M) -7) was 0. The “Intracellular Ca2+ Response (normalized to 1mM glutamate), Mean” value ([5]; log[Glutamate] (M) -7.30103) was 0 and the “Intracellular Ca2+ Response (normalized to 1mM glutamate), Mean” value ([5]; log[Glutamate] (M) -7.69897) was 0.

— article PMC9299836 (eLife, 2022)
